# Experimental data from patent US9868707B2, “Small molecule agonists of neurotensin receptor 1” (SANFORD-BURNHAM MEDICAL RESEARCH INSTITUTE, priority 2012, dated 2018).
# How the values were obtained:
# [1] = Metabolic stability in mouse hepatic microsomes; assay type: in vitro ADME
# Method: Hepatic metabolic stability was determined using established protocols (Di, L., Kerns, E. H., Hong, Y., Kleintop, T. A., McConnell, O. J., and Huryn, D. M. 2003. Optimization of a higher throughput microsomal stability screening assay for profiling drug discovery candidates. J Biomol Screen 8:453-462). Briefly, the compound (1.0 and 10.0 μM) was preincubated for 10 min at 37° C. in potassium phosphate buffer (pH 7.4) together with 0.5 mg/mL mouse or human hepatic microsomes (Xenotech, Kansas City). The cofactor mixture comprising NADP, G6P, and G6P-DH (BD Biosciences) was added, and aliquots were taken after 0 and 60 min. Samples were analyzed on an Acquity UPLC, coupled with a sample organizer, and interfaced with a triple quadrupole ABI 4000 LC/MS/MS using the methodology described above. The percentage of the compound remaining after a 60 min incubation period was calculated according the following equation: [(area at time 60 min)/(area at time 0 min)]×100%.
# signal = assay: Panlabs/Ricerca lead profiling panel, signal; assay type: binding; details: @ 10 μM
# Source text: However, these activities in in vitro binding assays may not translate into functional modulation of these receptors.
structure (smiles),measurement,setting,value
"COc1cc2nc(C3CC3)nc(N3CCN(c4ccccc4OC)CC3)c2cc1OC [Compound 315, 2-cyclopropyl-6,7-dimethoxy-4-(4-(2-methoxyphenyl)piperazin-1-yl)quinazoline]",Hepatic Microsome Stability (% Remaining at 1 hr),[1],0.16%
same,metabolism in vitro with liver homogenates,[1],metabolized rapidly
same,activity at signal,signal,69%
